Patent publication US20240109879A1, “BENZIMIDAZOLE COMPOUND AND APPLICATION THEREOF” (Medshine Discovery Inc., priority 2020, published 2024)
pIC50: −log10 of the molar value.

Assays:
[1] = molecular target: p300 (Homo sapiens (Human), UniProt Q09472); assay: Assay of p300 protein activity (HTRF, p300-GST with Histone H4 (1-21) K5/8/12/16Ac-GG-Biotin peptide ligand); format: binding; conditions: 5 nM p300-GST, 50 nM peptide ligand
Experimental: (§1) Assay Example 1: Assay of p300 and CBP Protein Activity
(§2) Reaction buffer: 25 mM HEPES, pH 7.5, 25 mM NaCl, 0.025% CHAPS, 0.025% BSA, 0.5% DMSO.
(§3) Standard Reaction Conditions:
(§4) 5 nM p300-GST, 50 nM peptide ligand.
(§5) Reaction Procedure: • 1. 2.5×BRD was added to the wells of a reaction plate, except for control wells without BRD to which buffer was added instead. • 2. Compounds in 100% DMSO were delivered into the BRD mixture by acoustic technology (Echo550; nanoliter range). The plate was spun down. The mixture was incubated at room temperature for 30 min. • 3. 5×peptide ligand was delivered. The plate was spun down. The mixture was incubated at room temperature for 10 min. • 4. 5×HTRF detection mixture was delivered. The plate was spun down and the mixture was incubated in the dark for 2 h. • 5. A measurement of HTRF was performed with an Envision reader (Ex/Em=320/615, 665 nm). • 6. A HTRF ratio was calculated as follows: [em 665 nm/em 615 nm]*10000.
(§6) The background-subtracted signal (no protein as background) was converted to % bound relative to the DMSO control. Data were analyzed using GraphPad Prism 4 with “sigmoidal dose-response (variable slope)”; and a 4-parameter analysis was performed using Hill slope.
(§7) Constraints: • Bottom=Constant equal to 0 • Top=Must be less than 120

[2] = molecular target: CBP (Homo sapiens (Human), UniProt Q92793); assay: Assay of CBP protein activity (HTRF, BRD with acetylated Histone H4 peptide ligand); format: binding
Experimental: as §1, §2, §3, §4, §5, §6, §7

[3] = Pharmacokinetic study in CD-1 mice (intravenous injection and oral gavage); format: in vivo; conditions: male CD-1 mice
Description: Assay Example 2: Pharmacokinetic Study of Compounds of the Present Disclosure
CD-1 mice (male, 5-6 weeks old, Shanghai Family Planning Research Institute)
Injection: To assay pharmacokinetic characteristics of rodents after intravenous injection administration of compounds by a standard protocol. In the assay, candidate compounds were formulated into clear solutions, and administered to mice as a single intravenous injection. The vehicle for the intravenous injection was a mixed vehicle formulated with 5% of dimethyl sulfoxide and 95% of 10% hydroxypropyl β-cyclodextrin. In this assay, two male CD-1 mice were used for intravenous injection administration at a dose of 0.5 mg/kg. Plasma samples were collected at 0.083, 0.25, 0.5, 1, 2, 4, 8 and 24 h after administration. Whole blood samples were collected within 24 hours, and centrifuged at 3000 g for 15 minutes. The supernatants were separated to obtain plasma samples. To the plasma samples was added 20 times volume of acetonitrile solution containing internal standard to precipitate protein. The mixtures were vortexed and centrifuged. The supernatants were taken for injection. Plasma drug concentration was quantitatively analyzed by LC-MS/MS analysis method, and pharmacokinetic parameters (such as clearance (CL), half-life (T1/2), […] (Vdss), area under the drug-time curve (AUC0-last), etc.) were calculated.
Oral: To assay pharmacokinetic characteristics of rodents after oral administration of compounds by a standard protocol. In the assay, candidate compounds were formulated into homogeneous opaque suspensions, and given to the mice for a single oral administration. The vehicle for the oral administration was a mixed vehicle formulated with 5% of dimethyl sulfoxide and 95% of 0.5% methylcellulose. In this assay, two male CD-1 mice were used for oral gavage administration at a dose of 3 mg/kg. Plasma samples were collected at 0.25, 0.5, 1, 2, 4, 8 and 24 h after administration. Whole blood samples were collected within 24 hours, and centrifuged at 3000 g for 15 minutes. The supernatants were separated to obtain plasma samples. To the plasma samples was added 20 times volume of acetonitrile solution containing internal standard to precipitate protein. The mixtures were vortexed and centrifuged. The supernatants were taken for injection. Plasma drug concentration was quantitatively analyzed by LC-MS/MS analysis method, and pharmacokinetic parameters (such as peak concentration (Cmax), half-life (T1/2), area under the drug-time curve (AUC0-last), etc.) were calculated.

Sequence of p300 (Q09472 1049-1156): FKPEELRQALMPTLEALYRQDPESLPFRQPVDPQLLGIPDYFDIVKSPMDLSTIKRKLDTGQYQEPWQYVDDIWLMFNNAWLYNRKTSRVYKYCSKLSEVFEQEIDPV
Sequence of CBP (Q92793 1085-1192): as the sequence (Q09472 1049-1156) above, with S47N, I73V, Y93F, S98A counted along it

SMILES: COC1CCC(n2c([C@@H]3CN(C)C(=O)N3c3ccc(F)c(F)c3)nc3cc(-c4c(C)noc4C)ccc32)CC1 (some centres unmarked) [Compound 4A]
- pIC50 [1]: 7.95

SMILES: COC1CCC(n2c([C@@H]3C[C@H]4C[C@H]4C(=O)N3c3ccc(F)c(F)c3)nc3cc(-c4c(C)noc4C)ccc32)CC1 (single isomer, unassigned) [Compound 3B]
- pIC50 [2]: 9.17
- Bioavailability F (%) ([3]; gavage 3 mg/kg vs intravenous 0.5 mg/kg): 64%
- Area under curve (0-inf) AUC0-inf ([3]; gavage, 3 mg/kg): 2.606 µM·h
- Area under curve (0-t) AUC0-last ([3]; gavage, 3 mg/kg): 2.577 µM·h
- Time to peak Tmax ([3]; gavage, 3 mg/kg): 45 min
- half-life T1/2 ([3]; gavage, 3 mg/kg): 67.2 min
- Cmax ([3]; gavage, 3 mg/kg, read-out: Plasma drug concentration Cmax): 697 nM
- Apparent distribution volume Vdss ([3]; intravenous, 0.5 mg/kg): 1.65 L/kg
- Area under curve (0-inf) AUC0-inf ([3]; intravenous, 0.5 mg/kg): 0.676 µM·h
- Area under curve (0-t) AUC0-last ([3]; intravenous, 0.5 mg/kg): 0.665 µM·h
- Clearance Cl ([3]; intravenous, 0.5 mg/kg): 23.3 mL/min/kg
- half-life T1/2 ([3]; intravenous, 0.5 mg/kg): 59.4 min
- pIC50 [1]: 8.54

SMILES: COC1CCC(n2c([C@H]3C[C@@H]4C[C@@H]4C(=O)N3c3ccc(F)c(F)c3)nc3cc(-c4c(C)noc4C)ccc32)CC1 (single isomer, unassigned) [Compound 3C]
- pIC50 [1]: 7.85

SMILES: Cc1noc(C)c1-c1ccc2c(c1)nc([C@H]1CCCC(=O)N1c1ccc(F)c(F)c1)n2C1CC2C(C1)C2(F)F (some centres unmarked) [Compound 2B]
- pIC50 [2]: 9.17
- pIC50 [1]: 8.45
